Results: patent US20240174690A1, “ANNULATED 2-AMINO-3-CYANO THIOPHENES AND DERIVATIVES FOR THE TREATMENT OF CANCER” (BOEHRINGER INGELHEIM INTERNATIONAL GMBH, priority 2021, published 2024)
Read-outs that look alike come from different tables or passages of the source.

Tests used:
LOVO cells = assay: LOVO CTG proliferation assay (120 h) (CRC, G13D); type: cell-based; conditions: Homo sapiens, CTG 120 h
Procedure, shortened: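 LOVO cells, 1000 per well in DMEM + 10% FCS, were plated overnight and then dosed with compound from DMSO stock. After 120 h at 37 °C, viability was read by CellTiter-Glo luminescence as a percentage of DMSO controls. IC50 was derived by four-parameter non-linear regression.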

NCI-H358 cells = assay: NCI-H358 CTG proliferation assay (120 h) (NSCLC, G12C); type: cell-based, human; conditions: Homo sapiens
Procedure, shortened: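 NCI-H358 cells (KRAS G12C) were seeded at 2000/well (assay 1) or 200/well (assay 2) in RPMI-1640 + 10% FCS and dosed with a logarithmic series, DMSO-normalized. After 120 h, viability was read by CellTiter-Glo luminescence as percent of DMSO control, with a T0 read at dosing. IC50 came from a four-parameter fit.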

KRAS (G12C)::SOS1 = KRAS (G12C)::SOS1 (Homo sapiens (Human), UniProt P01116, C118S/C51S/C80L/G12C); assay: KRAS::SOS1 AlphaScreen binding assay, KRAS G12C
Procedure, shortened: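 Compounds (up to 100 μM, eleven fivefold dilutions in duplicate) were incubated 30 min with KRAS 1-169 (10 nM, or 7.5 nM for G12C), GST-SOS1 564-1049 (5 nM for G12D/G12C, 10 nM for others) and 10 μM GDP in PBS buffer with BSA and Tween. Donor/acceptor beads were then added for 60 min at room temperature, and IC50 came from a 4-parameter fit of the AlphaScreen signal.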

[1] = assay 1, CTG, read-out: H358 (assay 1) IC50
[2] = assay 2, CTG, read-out: H358 (assay 2) IC50

Sequence of KRAS (G12C)::SOS1 (P01116 other isoform, or with tags, fused parts or gaps G12C/C51S/C80L/C118S): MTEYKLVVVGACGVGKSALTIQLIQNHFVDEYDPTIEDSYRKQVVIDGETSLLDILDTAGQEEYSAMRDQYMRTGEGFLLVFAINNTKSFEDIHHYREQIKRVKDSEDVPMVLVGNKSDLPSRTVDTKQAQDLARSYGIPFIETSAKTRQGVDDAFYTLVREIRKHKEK

Row | Structure (SMILES) | IC50 (LOVO cells) | IC50 (NCI-H358 cells; [1]) | IC50 (NCI-H358 cells; [2]) | IC50 (KRAS (G12C)::SOS1)
1 | CNC(=O)c1ccn(-c2cc(O[C@@H](C)[C@@H]3CCCN3C)nc(-c3noc4c3CCC[C@@]43CCCc4sc(N)c(C#N)c43)n2)n1 [II-20] | 158 nM | 6 nM | 2 nM | 1 nM
2 | C[C@H](Oc1cc(-n2ccc(C(N)=O)n2)nc(-c2noc3c2CCC[C@@]32CCCc3sc(N)c(C#N)c32)n1)[C@@H]1CCCN1C [II-21] | 29 nM | 10 nM | 4 nM | 2 nM
3 | C[C@H](Oc1cc(-n2ccc(C(=O)NC3(C)COC3)n2)nc(-c2noc3c2CCC[C@@]32CCCc3sc(N)c(C#N)c32)n1)[C@@H]1CCCN1C [II-26] | 109 nM | – | 4 nM | 1 nM
4 | C[C@H](Oc1cc(-c2ccn(C)n2)nc(-c2noc3c2CCC[C@@]32CCCc3sc(N)c(C#N)c32)n1)[C@@H]1C[C@@H](F)CN1C [II-27] | 345 nM | 112 nM | 44 nM | 2 nM
5 | C[C@H](Oc1cc(N2CCNC3(COC3)C2)nc(-c2noc3c2CCC[C@@]32CCCc3sc(N)c(C#N)c32)n1)[C@@H]1CCCN1C [II-31] | 182 nM | – | 143 nM | 2 nM
6 | CN[C@H]1CCN(c2cc(O[C@@H](C)[C@@H]3CCCN3C)nc(-c3noc4c3CCC[C@@]43CCCc4sc(N)c(C#N)c43)n2)C1 [II-35] | 1690 nM | – | 457 nM | 7 nM
7 | C[C@H](Oc1cc(N2CCNC3(CCCC3)C2)nc(-c2noc3c2CCC[C@@]32CCCc3sc(N)c(C#N)c32)n1)[C@@H]1CCCN1C [II-41] | 703 nM | – | 1520 nM | 9 nM
8 | C[C@H](Oc1cc(-c2ccn([C@H]3CCCOC3)n2)nc(-c2noc3c2CCC[C@@]32CCCc3sc(N)c(C#N)c32)n1)[C@@H]1CCCN1C [II-42] | 149 nM | – | 136 nM | 2 nM
9 | C[C@H](Oc1cc(N2CCNCC2)nc(-c2noc3c2CCC[C@@]32CCCc3sc(N)c(C#N)c32)n1)[C@@H]1CCCN1C [II-45] | 6600 nM | 969 nM | > 25000 nM | 3 nM
10 | C[C@H](Oc1cc(N2CCC(N(C)C)CC2)nc(-c2noc3c2CCC[C@@]32CCCc3sc(N)c(C#N)c32)n1)[C@@H]1CCCN1C [II-48] | 736 nM | – | 2160 nM | 7 nM

Next, values leading:

Row | IC50 (LOVO cells) | IC50 (NCI-H358 cells; [1]) | IC50 (NCI-H358 cells; [2]) | IC50 (KRAS (G12C)::SOS1) | Structure (SMILES)
11 | 21 nM | 17 nM | 2 nM | 1 nM | C[C@H](Oc1cc(-n2ccc(C(=O)N3CCCC3)n2)nc(-c2noc3c2CCC[C@@]32CCCc3sc(N)c(C#N)c32)n1)[C@@H]1CCCN1C [II-19]
12 | 124 nM | – | 4 nM | 1 nM | CCOC(=O)c1ccn(-c2cc(O[C@@H](C)[C@@H]3CCCN3C)nc(-c3noc4c3CCC[C@@]43CCCc4sc(N)c(C#N)c43)n2)n1 [II-23]
13 | 508 nM | – | 1300 nM | 3 nM | C[C@H](Oc1cc(N2CCNC3(CCC3)C2)nc(-c2noc3c2CCC[C@@]32CCCc3sc(N)c(C#N)c32)n1)[C@@H]1CCCN1C [II-40]
14 | 120 nM | – | 117 nM | 1 nM | C[C@H](Oc1cc(-c2ccn(C[C@@H]3CCCO3)n2)nc(-c2noc3c2CCC[C@@]32CCCc3sc(N)c(C#N)c32)n1)[C@@H]1CCCN1C [II-43]
15 | 92 nM | – | 398 nM | 2 nM | C[C@H](Oc1cc(C2CCCO2)nc(-c2noc3c2CCC[C@@]32CCCc3sc(N)c(C#N)c32)n1)[C@@H]1CCCN1C (some centres unmarked) [II-44]
16 | 459 nM | – | 2050 nM | 4 nM | C[C@H](Oc1cc(N2CC[C@@H](N(C)C)C2)nc(-c2noc3c2CCC[C@@]32CCCc3sc(N)c(C#N)c32)n1)[C@@H]1CCCN1C [II-47]
17 | 334 nM | – | 99 nM | 1 nM | [2H]C([2H])([2H])N1C[C@H](F)C[C@H]1[C@H](C)Oc1cc(N2CCNC3(CC3)C2)nc(-c2noc3c2CCC[C@@]32CCCc3sc(N)c(C#N)c32)n1 [II-208]
18 | 493 nM | – | 136 nM | 4 nM | [2H]C([2H])([2H])N1C[C@H](F)C[C@H]1[C@H](C)Oc1cc(N2CCN(C)C3(CC3)C2)nc(-c2noc3c2CCC[C@@]32CCCc3sc(N)c(C#N)c32)n1 [II-209]
